# Experimental data as given in article PMC11546786, “Designing Analogs of SAAP-148 with Enhanced Antimicrobial and Anti-LPS Activities” (International Journal of Molecular Sciences, 2024).
# Ends that are not written are not given here.
# Experiments:
# [1] = Reversed-phase HPLC retention time as measure of peptide hydrophobicity; format: physicochemical; conditions: retention time by reverse-phase HPLC, reflects hydrophobicity difference between analogues
# [2] = system: Klebsiella pneumonia (1.1736); format: cell-based, Klebsiella pneumoniae
# Description: The LL-37, SAAP-148 and its analogues peptides were synthesized according to the standard Fmoc procedure. The Fmoc-protected resin and monomers are first treated with a basic solvent (piperidine) to remove the amino protecting groups. The carboxyl group of the next amino acid is activated by an activator. The activated monomer reacts with the free amino group to form a peptide bond. These two steps are repeated in a cycle until the synthesis is complete. After synthesis, the peptide is eluted from the column and purified by reverse-phase semipreparative high-performance liquid chromatography as detailed in Table 1. The peptides were dissolved in PBS to create a 1000 μmol/L stock solution for subsequent use. The purity of the synthetic peptide exceeded 95%. Blood samples from healthy donors were obtained from the Fifth Medical Center of Chinese PLA General Hospital (Beijing, China). Human normal lung epithelial cells (BEAS-2B) and mouse mononuclear macrophages cells (RAW 264.7) were sourced from Beyotime Biotechnology (Beijing, China), along with the Enhanced Cell Counting Kit-8 (CCK-8) and nitric oxide detection kit. RPMI-1640 and DMEM were procured from Merck (Darmstadt, Germany), while FBS was obtained from ExCell Bio (Shanghai, China). LPS-B5 (from E. coli 055:B5) was procured from Invivogen (Toulouse, France). Five bacterial strains, including Escherichia coli (1.8732), Pseudomonas aeruginosa (1.2421), Klebsiella pneumonia (1.1736) as Gram-negative bacteria, and Staphylococcus aureus (1.8721) and Staphylococcus epidermidis (1.4260) as Gram-positive bacteria, were procured from the China General Microbiological Culture Collection Centre (CGMCC) (Beijing, China).
# The antibacterial activities of the peptides against […] were evaluated using a modified version of the Clinical Laboratory and Standards Institute (CLSI) broth microdilution method, as previously described. Briefly, the bacteria were cultured in liquid LB medium (comprising 10 g/L tryptone, 5 g/L yeast extract, and 10 g/L NaCl) at 37 °C until reaching mid-log phase. Subsequently, the bacterial concentration was adjusted to 1 × 10^6 colony-forming units (CFU)/mL. The peptides were then diluted serially with phosphate-buffered saline (PBS), followed by the addition of 50 μL of the diluted peptides to 50 μL of the bacterial suspension in a 96-well plate (Corning Inc., Lowell, MA, USA). After incubating at 37 °C for 18 to 20 h, the absorbance of each well was measured using a multi-well microplate reader (SpectraMax M5; Molecular Devices, Sunnyvale, CA, USA) at 600 nm.
# [3] = system: Gram-negative bacteria (E. coli, P. aeruginosa, K. pneumoniae); assay: Geometric mean of MICs against Gram-negative bacteria; format: cell-based; set-up: unit not given here
# Procedure, shortened: (§1)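 Modified CLSI broth microdilution: mid-log bacteria from LB culture were adjusted to 1 × 10^6 CFU/mL and mixed 1:1 with peptide serially diluted in PBS. After 18 to 20 h at 37 °C, growth was read as absorbance at 600 nm.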
# [4] = system: Gram-positive bacteria (S. aureus, S. epidermidis); assay: Geometric mean of MICs against Gram-positive bacteria; format: cell-based; set-up: unit not given here
# Procedure, shortened: as §1
# [5] = system: five bacterial strains; assay: MICs against all five bacterial strains (geometric mean, range); format: cell-based; set-up: unit not given here; conditions: geometric mean of MICs against all five bacterial strains
# Procedure, shortened: as §1
# [6] = system: human erythrocytes versus five bacterial strains; assay: Therapeutic index (MHC/GM of MIC)
# Protocol: The geometric mean of minimum inhibitory concentration (MIC) values (GM) from the five strains was calculated to provide a comprehensive assessment of antimicrobial activity, as presented in Table 4.
# The therapeutic index (TI) is a widely utilized parameter for indicating the specificity of antimicrobial agents, which is determined by the ratio of MHC (hemolytic activity) and MIC (antimicrobial activity). Consequently, larger TI values signify greater antimicrobial specificity. The TI can be enhanced through one of three mechanisms: increasing antimicrobial activity, reducing hemolytic activity while maintaining antimicrobial activity, or a combination of both augmenting antimicrobial activity and diminishing hemolytic activity.
# [7] = system: S. aureus; assay: Membrane damage, PI staining and flow cytometry; format: cell-based, Staphylococcus aureus; conditions: 6.25 μM peptide, 30 min
# Protocol: Propidium iodide (PI) was utilized as a marker for assessing the structural integrity of cell membranes and the occurrence of cell death. The impact of peptides on BEAS-2B cells, E. coli, and S. aureus was investigated by treating the cells with peptides followed by PI staining and flow cytometry (FACS) analysis to evaluate peptide-induced membrane damage. Table 5 presents the results of PI staining in BEAS-2B cells (1 × 10^6) following treatment with peptides at a concentration of 6.25 μM. […] FACS analysis at a peptide concentration of 6.25 μM was employed to determine the membrane damage caused by peptides in E. coli and S. aureus cells (Table 5).
# Peptide-induced membrane damage was evaluated by quantifying the influx of propidium iodide (PI). BEAS-2B cells (1 × 10^6 cells in 50 μL) were exposed to a final concentration of 6.25 μM peptide and incubated at 37 °C for 30 min, followed by PBS washing and re-suspension in PI solution (dissolved in PBS) at a final concentration of 2 μg/mL. Bacteria were cultured to mid-log phase at 37 °C, then diluted to an OD600 of 0.5 in phosphate-buffered saline (PBS). […] The bacteria were harvested and re-suspended in PI solution, with fluorescence signal analysis conducted using flow cytometry (Cytomics FC 500, Beckman Coulter, Indianapolis, IN, USA).
substance,measurement,setting,value
LKRVWKRVFKLKKRYWRQLKKPVR-NH2 [SAAP-7],Rt,[1],12.897 min
same,MIC K. pneumoniae,[2],100.00 µM
same,GM to G−,[3],9.93
same,GM to G+,[4],35.36
same,MIC (GM),[5],16.49
same,Fold (TI of analogue compared with SAAP-148),[6]; TI change relative to SAAP-148,55.09
same,TI (MHC/MIC),[6]; ratio of MHC to geometric mean of MIC (five strains),6.06
same,"percentage of PI-positive cells, S. aureus",[7],21.1%
